In patent publication US4386076A, “(E)-5-(2-Halogenovinyl)-arabinofuranosyluracil, process for preparation thereof, and uses thereof” (Yamasa Shoyu Kabushiki Kaisha, priority 1979, dated 1983):
Values after ≈ are worked out from the molar mass of the structure shown. Where two headings read alike, the source gives them in different places.

Legend:
HSV-2 = assay: Anti-HSV-2 activity (Pharmacological Test 3); format: cell-based, type-2 herpes (HSV-2); conditions: for anti-HSV-2 activity compared with 5-vinyl-araU: relative to 5-vinyl-araU
Experimental: (§1) In accordance with the Sidwell et al. method (cf. Applied Microbiology, Vol. 22, No. 5, P. 797, 1971), the anti-virus activities of 5-bromovinyl- and 5-chlorovinyl-araU on human embryonic lung fibroblasts (HEL-F) were determined by using as controls 5-iodo-2'-deoxyuridine (IDU) and arabinofuranosyladenine (araA).
(§2) In conformance with Pharmacological Tests 1 and 2, the anti-virus activities and cell proliferations of 5-bromovinyl-araU and 5-chlorovinyl-araU were compared with those of 5-vinyl-araU and 5-bromovinyl-2'-deoxyuridine (5-bromovinyl-dUrd).

[1] = Anti-HEL-F, cell proliferation (Pharmacological Test 3); format: cell-based, human; conditions: human, hel-f cells
Experimental: (§3) The effects of 5-bromovinyl araU and 5-chlorovinyl-araU on proliferation of HEL-F were compared with those of IDU and araA in accordance with the Machida et al. method (cf. Antimicrobial Agents and Chemotherapy, Vol. 16, No. 2, p. 158, 1979).
(§4) In the growth medium of HEL-F under proliferation (culture medium: Eagle's minimal essential medium supplemented with 10% fetal bovine serum) was added a test compound diluted in serial two-fold dilution and then incubated for 4 days. The numbers of increased cells with various concentrations of the compound tested were compared with those of the control groups wherein no compound was added.
as §2

HEL-F [2] = assay: as above; format: cell-based, human; conditions: for HEL-F proliferation inhibitory effect compared with 5-bromovinyl-dUrd: Test 3, relative to 5-bromovinyl-dUrd; for cell proliferation inhibiting activity relative to 5-vinyl-araU: Test 3, relative to 5-vinyl-araU
Experimental: as §3, §4, §2

VZV [3] = assay: Anti-VZV activity (Pharmacological Test 3); format: cell-based, varicella-zoster virus; conditions: for MIC: Human alphaherpesvirus 3
Experimental: as §1, §2

herpes virus = assay: Anti-virus activity, overall statement; format: cell-based; conditions: for anti-virus activity compared with IDU and araA: Test 1, relative to IDU and araA; for anti-virus activity compared with 5-bromovinyl-dUrd: Test 3, relative to 5-bromovinyl-dUrd
Experimental: as §1, §2

[4] = Effect on proliferation of HEL-F (Pharmacological Test 2, Machida et al. method); format: cell-based, human; conditions: human, hel-f cells
Experimental: as §3, §4

HEL-F [5] = assay: as above; format: cell-based, human; conditions: Test 2, relative to IDU and araA
Experimental: as §3, §4

VZV [6] = assay: Anti-virus activity on HEL-F, VZV (Pharmacological Test 1, Sidwell et al. method); format: cell-based, varicella-zoster virus; conditions: for MIC: Human alphaherpesvirus 3, read-out: MIC (minimal inhibitory concentration for cytopathogenic effect caused by the infection)
Experimental: as §1
(§5) *MIC = minimal inhibitory concentration for cytopathogenic effect caused
^(3) VZV = varicellazoster virus

HSV-1 = assay: Anti-HSV-1 activity (Pharmacological Test 3); format: cell-based, herpes simplex virus type 1; conditions: for anti-HSV-1 activity compared with 5-vinyl-araU: Test 3, relative to 5-vinyl-araU
Experimental: as §1, §2

HSV, isolate-1 = assay: Anti-virus activity on HEL-F, HSV isolate-1 (Pharmacological Test 1, Sidwell et al. method); format: cell-based, herpes simplex virus clinical isolated strain 1; conditions: for MIC: read-out: MIC (minimal inhibitory concentration for cytopathogenic effect caused by the infection)
Experimental: as §1, §5
^(2) HSV, isolate1 = herpes simplex virus clinical isolated strain 1

HSV-1, VR-3 = assay: Anti-virus activity on HEL-F, HSV-1 VR-3 (Pharmacological Test 1, Sidwell et al. method); format: cell-based, herpes simplex virus type 1 VR3 strain
Experimental: as §1, §5
^(1) HSV1, VR3 = herpes simplex virus type 1 VR3 strain

[7] = Human alphaherpesvirus 2, Test 3, read-out: Anti-HSV-2 MIC
[8] = HEL-F under proliferation, incubated for 4 days, Test 2, read-out: ID50 (50% inhibition of proliferation)
[9] = Human alphaherpesvirus 1, Test 3, read-out: Anti-HSV-1 MIC
[10] = Human alphaherpesvirus 1, HSV-1 VR-3, HEL-F, Test 1, read-out: MIC (minimal inhibitory concentration for cytopathogenic effect caused by the infection)

Row | SMILES | MIC (HSV-2; [7]) [µg/mL] | Anti-HSV-2 VR (HSV-2; Test 3) | anti-HSV-2 activity compared with 5-vinyl-araU (HSV-2) | CC50 at 96 h [1] [µg/mL] | HEL-F proliferation inhibitory effect compared with 5-bromovinyl-dUrd (HEL-F [2]) | cell proliferation inhibiting activity relative to 5-vinyl-araU (HEL-F [2]) | Anti-VZV VR (VZV [3]) | MIC (VZV [3]) [µg/mL] | anti-virus activity compared with IDU and araA (herpes virus) | anti-virus activity compared with 5-bromovinyl-dUrd (herpes virus) | CC50 at 96 h [4, 8] [µg/mL] | inhibition of cell proliferation compared with IDU and araA (HEL-F [5]) | VR (virus rating) (VZV [6]) | MIC (VZV [6]) [µg/mL] | MIC (HSV-1; [9]) [µg/mL] | Anti-HSV-1 VR (HSV-1; Test 3) | VR (virus rating) (HSV, isolate-1; HSV isolate-1, HEL-F, Test 1) | MIC (HSV, isolate-1; HSV isolate-1, HEL-F, Test 1) [µg/mL] | VR (virus rating) (HSV-1, VR-3; HSV-1 VR-3, HEL-F, Test 1) | MIC (HSV-1, VR-3; [10]) [µg/mL] | further results
1 | O=c1[nH]c(=O)n([C@@H]2O[C@H](CO)[C@@H](O)[C@@H]2O)cc1/C=C/Br [5-bromovinyl-araU, (E)-5-(2-bromovinyl)-1-β-D-arabinofuranosyluracil] | 100 (≈ 286 µM) | 0.9 | inferior to 5-vinyl-araU | > 1000 | less than that of 5-bromovinyl-dUrd | one half relative to 5-vinyl-araU | 3.5 | 0.1 (≈ 0.286 µM) | stronger anti-virus activities | potencies similar to that of 5-bromovinyl-dUrd | > 1000 | markedly weak inhibition of cell proliferation | 3.5 | 0.1 (≈ 0.286 µM) | 0.032 (≈ 0.0917 µM) | 3.7 | 3.8 | 0.032 (≈ 0.0917 µM) | 3.8 | 0.032 (≈ 0.0917 µM) | anti-HSV-2 activity compared with anti-HSV-1 activity (HSV-2; HSV-2 versus HSV-1): lower than that on type-1 herpes (HSV-1); anti-HSV-1 activity compared with 5-vinyl-araU (HSV-1): significantly greater anti-HSV-1 activity
2 | O=c1[nH]c(=O)n([C@H]2C[C@H](O)[C@@H](CO)O2)cc1/C=C/Br [5-bromovinyl-dUrd, 5-bromovinyl-2'-deoxyuridine, reference compound] |  | 0.7 | inferior to 5-vinyl-araU |  |  |  |  |  |  |  |  |  |  |  |  | 3.7 |  |  |  |  | MIC (HSV-2; Human alphaherpesvirus 2, read-out: Anti-HSV-2 MIC): 100 µg/mL (≈ 300 µM); MIC (HSV-1; Human alphaherpesvirus 1, read-out: Anti-HSV-1 MIC): 0.032 µg/mL (≈ 0.0961 µM)
3 | O=c1[nH]c(=O)n([C@@H]2O[C@H](CO)[C@@H](O)[C@@H]2O)cc1/C=C/Cl [5-chlorovinyl-araU, (E)-5-(2-chlorovinyl)-1-β-D-arabinofuranosyluracil] | > 1000 | 0.2 |  | 1000 (≈ 3280 µM) | less than that of 5-bromovinyl-dUrd | one half relative to 5-vinyl-araU | 3.4 | 0.1 (≈ 0.328 µM) | stronger anti-virus activities | potencies similar to that of 5-bromovinyl-dUrd | > 500 | markedly weak inhibition of cell proliferation | 3.4 | 0.1 (≈ 0.328 µM) | 0.1 (≈ 0.328 µM) | 3.5 | 3.1 | 0.1 (≈ 0.328 µM) | 3.3 | 0.1 (≈ 0.328 µM) | anti-HSV-1 activity compared with 5-vinyl-araU (HSV-1): significantly greater anti-HSV-1 activity
4 | C=Cc1cn([C@@H]2O[C@H](CO)[C@@H](O)[C@@H]2O)c(=O)[nH]c1=O [5-vinyl-araU, 5-vinylarabinofuranosyluracil, reference compound] | 1 (≈ 3.7 µM) | 2.7 |  | 650 (≈ 2410 µM) |  |  | 2.9 | 0.32 (≈ 1.18 µM) |  |  |  |  |  |  | 0.1 (≈ 0.37 µM) | 3.3 |  |  |  |  | 
5 | O=c1[nH]c(=O)n([C@H]2C[C@H](O)[C@@H](CO)O2)cc1I [IDU, 5-iodo-2'-deoxyuridine, reference compound] |  |  |  |  |  |  |  |  |  |  | 6 (≈ 16.9 µM) |  | 2.3 | 3.2 (≈ 9.04 µM) |  |  | 2.1 | 3.2 (≈ 9.04 µM) | 2.4 | 3.2 (≈ 9.04 µM) | 
6 | Nc1ncnc2c1ncn2[C@@H]1O[C@H](CO)[C@@H](O)[C@@H]1O [araA, arabinofuranosyladenine, reference compound] |  |  |  |  |  |  |  |  |  |  |  |  |  |  |  |  | 1.9 |  | 1.9 |  | CC50 at 96 h [4]: 4 µg/mL (≈ 15 µM); MIC (HSV, isolate-1): 10 µg/mL (≈ 37.4 µM); MIC (HSV-1, VR-3; Human alphaherpesvirus 1, read-out: MIC (minimal inhibitory concentration for cytopathogenic effect caused by the infection)): 10 µg/mL (≈ 37.4 µM)
